Like-named read-outs stand apart in the source and are kept apart here.
Assay: Resorption of octreotide after injection of a solution into the jejunum of anaesthetised rats; plasma concentration by radio-immunoassay
Assay type: in vivo, Wistar rats
Settings: for AUC(0-t): area under the curve over 2 hours
Protocol: Wistar rats (about 300 g body weight) were fasted for 12 hours and anaesthetised with urethane (2 doses of […] i.p.). The abdomen was opened to gain access to the gastrointestinal tract in particular the jejunum. A solution of the pharmaceutical composition according to the invention or of the somatostatin as a control or of a somatostatin in combination with sodium taurocholate, a resorption enhancer, known to be used in combination with e.g. salmon calcitonin or insulin for an improved resorption through the mucous membrane of the gastrointestinal tract, was injected into the gastrointestinal tract, e.g. the jejunum. Blood samples (e.g. 1 ml) are obtained 20 minutes, and 1 and 2 hours after administration from the vena cava. The blood is centrifuged and the somatostatin concentration in the plasma determined in conventional manner using a radio-immunoassay method.
The relative bioavailability (AUCo² = Area under the curve over 2 hours) is determined and expressed in the following table, in which the AUC is expressed as ng/ml.hour and Cmax as ng/ml: TABLE A

C[C@@H](O)[C@@H]1NC(=O)[C@H](CCCCN)NC(=O)[C@@H](Cc2c[nH]c3ccccc23)NC(=O)[C@H](Cc2ccccc2)NC(=O)[C@@H](NC(=O)[C@H](N)Cc2ccccc2)CSSC[C@@H](C(=O)N[C@H](CO)[C@@H](C)O)NC1=O [100 microg. of octreotide (reference), Octreotide]
Cmax (Wistar, rat, 100 microg., octreotide in plasma, 0.5 ml of NaCl (0.9 % W/V) solution injected into the jejunum, sem in the next column): 2.23 ng/mL
AUC(0-t) (Wistar, rat, 100 microg., octreotide in plasma, 0.5 ml of NaCl (0.9 % W/V) solution injected into the jejunum, blood samples at 20 minutes, 1 and 2 hours, read-out: AUCo² median): 2.06 ng·h/mL
AUC(0-t) (Wistar, rat, plasma, 100 microg., octreotide in plasma, 0.5 ml of NaCl (0.9 % W/V) solution injected into the jejunum, sem in the next column, read-out: AUCo² mean): 2.26 ng·h/mL
Bioavail. rel. % (relative to 100 microg. of octreotide alone (reference = 100 %), values correspond to the ratio of the median AUCo²): 100%

Reference: patent EP0462071B1, “Pharmaceutical resorption-improved somatostatin compositions, their preparation and use” (SANDOZ LTD., priority 1990, dated 1991)
